Reference: US8008260B2, “Methods of protecting against apoptosis using lipopeptides” (Cleveland Clinic Foundation, priority 2005, dated 2011)
Peptide text beside a SMILES is read from it. * marks the point of attachment. Propyl(2R-PamO,3-PamO) = CCCCCCCCCCCCCCCC(=O)OC[C@H](C*)OC(=O)CCCCCCCCCCCCCCC

What was measured:
TLR2/TLR6 heterodimer = target: T1, TLR2/TLR6 heterodimer (Homo sapiens, UniProt O60603+Q9Y2C9); experiment: NF-κB-dependent reporter activity in 293 cells expressing the TLR2/TLR6 heterodimer; type: cell-based; design: NF-κB activation: scale not given here; conditions: in vitro activity, 293 cells expressing TLR2/TLR6
T1 construct: expressed in transfected cells; host or cells: 293 cells
T1 sequence (O60603 21-784): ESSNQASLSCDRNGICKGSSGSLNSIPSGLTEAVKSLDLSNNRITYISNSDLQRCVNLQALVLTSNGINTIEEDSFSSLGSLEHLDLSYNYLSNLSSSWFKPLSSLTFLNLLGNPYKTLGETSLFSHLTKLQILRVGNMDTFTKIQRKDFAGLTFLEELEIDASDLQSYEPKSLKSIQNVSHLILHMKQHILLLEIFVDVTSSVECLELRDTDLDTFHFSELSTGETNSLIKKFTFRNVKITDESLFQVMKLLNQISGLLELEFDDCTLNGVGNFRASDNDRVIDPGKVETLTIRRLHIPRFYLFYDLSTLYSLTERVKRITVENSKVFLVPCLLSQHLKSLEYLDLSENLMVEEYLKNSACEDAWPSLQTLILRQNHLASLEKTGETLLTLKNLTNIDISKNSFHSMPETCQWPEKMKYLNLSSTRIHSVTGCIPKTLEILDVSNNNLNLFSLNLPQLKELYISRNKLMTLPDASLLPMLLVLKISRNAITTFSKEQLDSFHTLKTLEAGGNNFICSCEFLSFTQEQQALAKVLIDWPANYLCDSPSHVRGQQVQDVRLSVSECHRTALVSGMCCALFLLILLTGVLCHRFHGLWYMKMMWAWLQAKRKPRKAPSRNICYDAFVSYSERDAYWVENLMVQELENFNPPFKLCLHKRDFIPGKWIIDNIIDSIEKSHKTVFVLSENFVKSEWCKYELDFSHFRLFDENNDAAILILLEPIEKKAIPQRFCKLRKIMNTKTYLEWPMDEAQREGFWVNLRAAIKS
T1 sequence (Q9Y2C9 32-796): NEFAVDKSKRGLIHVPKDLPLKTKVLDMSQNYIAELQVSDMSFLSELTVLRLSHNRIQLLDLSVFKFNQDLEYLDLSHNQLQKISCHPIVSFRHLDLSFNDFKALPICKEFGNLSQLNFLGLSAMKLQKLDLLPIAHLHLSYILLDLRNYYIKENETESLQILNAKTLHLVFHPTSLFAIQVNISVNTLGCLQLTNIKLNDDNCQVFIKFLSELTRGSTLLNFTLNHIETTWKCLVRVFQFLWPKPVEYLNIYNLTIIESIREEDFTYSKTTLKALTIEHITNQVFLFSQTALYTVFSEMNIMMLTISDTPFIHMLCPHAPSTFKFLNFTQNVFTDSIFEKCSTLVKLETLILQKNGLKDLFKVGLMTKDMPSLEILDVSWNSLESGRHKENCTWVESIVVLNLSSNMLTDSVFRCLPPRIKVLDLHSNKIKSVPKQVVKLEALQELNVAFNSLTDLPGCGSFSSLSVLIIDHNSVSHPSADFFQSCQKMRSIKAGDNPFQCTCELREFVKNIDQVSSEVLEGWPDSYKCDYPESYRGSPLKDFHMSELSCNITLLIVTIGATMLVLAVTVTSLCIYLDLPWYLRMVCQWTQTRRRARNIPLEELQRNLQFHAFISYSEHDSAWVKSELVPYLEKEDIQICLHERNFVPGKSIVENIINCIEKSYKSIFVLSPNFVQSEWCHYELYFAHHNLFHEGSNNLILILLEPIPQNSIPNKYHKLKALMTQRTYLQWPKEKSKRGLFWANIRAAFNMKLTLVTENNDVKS
Method: NF-κB-dependent reporter activity was measured in 293 cells that expressed the TLR2/YLR6 heterodimer. […] None of the non-palmitoylated corresponding peptides activated the NF-κB reporter (FIG. 18B). The peptide component of CBLB617 has a (−4) charge, which should prevent it from interacting with negatively charged cell surface markers. […] Table 5 summarizes the in vitro activity and solubility of all the compounds.

[1] = Solubility of the lipopeptides
ICR mice = experiment: Radiation LD50/30 and dose modification factor (DMF30); type: in vivo
Method: To determine DMF (dose modification factor), 3 μg of CBLB601/mouse was injected i.m. 24 hr prior to irradiation and control mice were injected with PBS. Both drug-injected and control groups received a single dose of TBI covering the dose range that leads to 10-90% mortality within the chosen time intervals (7 days for the gastrointestinal syndrome mortality, and 30 days for the hematopoietic syndrome mortality). The percent mortality-radiation dose graphs were built and LD50/7 and LD50/30 (LD50 at 7 days and 30 days, respectively) were calculated using probit or logit statistical analysis. DMF (also known as dose reduction factor, DRF) was calculated as a ratio of radiation LD50 for CBLB601-treated groups and radiation LD50 for vehicle-treated groups of mice for the chosen survival time point, 7 or 30 days. To calculate DMF30, which is the DMF at day 30 post-irradiation, the radiation LD50/30 values for mice treated with PBS or 3 μg of CBLB601 was determined. For this, PBS-injected groups were irradiated with doses of 6, 6.5, 7, and 7.7 Gy of TBI, and CBLB601-injected groups were irradiated with doses of 10, 10.5, 11, 11.5, and 12 Gy of TBI. […] However, inconsistency in the response to some radiation doses (7 Gy appeared non-toxic whereas 6.5 Gy caused 60% lethality at 30 days) in the control mice precluded an accurate calculation of the DMF30 for CBLB601. Nevertheless, it was expected that the LD50/30 for ICR mice was around 7 Gy [an average for the majority of mouse strains; Monobe et al., Radiother Oncology 73 Suppl 2: S12709, 2004)]. Thus, the value of DMF30 for CBLB601 was estimated roughly as ˜1.6.

[2] = 3 μg/mouse i.m. 24 hr prior to irradiation, ProBit analysis

## CCCCCCCCCCCCCCCC(=O)OC[C@H](CSC[C@H](N)C(=O)N[C@@H](CO)C(=O)N[C@@H](CCCCN)C(=O)N[C@@H](CCCCN)C(=O)N[C@@H](CCCCN)C(=O)N[C@@H](CCCCN)C(=O)O)OC(=O)CCCCCCCCCCCCCCC [CBLB601, R-PAM2C-SKKKK] (H-C(Propyl(2R-PamO,3-PamO))SKKKK-OH)
TLR2/TLR6 heterodimer
  NF-κB activation: 100
[1]
  Solubility: Excellent
ICR mice; [2]
  radiation LD50/30, average: ~11.32 Gy
  radiation LD50/30, range: 11.07-11.61 Gy
ICR mice; 3 μg/mouse i.m. 24 hr prior, control LD50/30 taken as around 7 Gy from literature
  DMF30 (dose modification factor at day 30): ~1.6
